Experimental data published in US12077503B2, “Substituted cyclic amides and their use as herbicides” (FMC CORPORATION, priority 2015, dated 2024).

Tests used:
Format in all cases: in vivo
[1] = tested on: sedge, umbrella (small-flower umbrella sedge, Cyperus difformis); experiment: Test B flooded paddy test; conditions: Flood, 250 g ai/ha; 0 to 100 scale where 0 is no effect and 100 is complete control; 13 to 15 d
How it was run: (§1)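 Compound goes directly into floodwater once pots are flooded 3 cm above soil, targeting plants at two leaves; the water depth is then held for the test duration. Plants sit 13–15 d in a greenhouse and are rated visually, 100 denoting complete control.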

[2] = tested on: rice (Oryra sativa); experiment: Test B flooded paddy test; conditions: Flood, 250 g ai/ha; 0 to 100 scale where 0 is no effect and 100 is complete control; 13 to 15 d
How it was run: as §1

[3] = tested on: ducksalad (Heteranthera limosa); experiment: Test B flooded paddy test; conditions: Flood, 250 g ai/ha; 0 to 100 scale where 0 is no effect and 100 is complete control; 13 to 15 d
How it was run: as §1

[4] = tested on: barnyardgrass (Echinochloa crus-galli); experiment: Test B flooded paddy test; conditions: Flood, 250 g ai/ha; 0 to 100 scale where 0 is no effect and 100 is complete control; 13 to 15 d
How it was run: as §1

[5] = tested on: giant foxtail (Setaria faberii); experiment: Test A postemergence; conditions: postemergence; for Foxtail, Giant plant response rating: 125 g ai/ha, visual injury rating on 0 to 100 scale (0 no effect, 100 complete control), approx. 10 d; for Plant response rating, Foxtail, Giant: 500 g ai/ha, 0 to 100 scale, 0 no effect, 100 complete control
How it was run: (§2)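 Ratings of 0 (no effect) to 100 (complete control) come from visual comparison with untreated controls roughly 10 d after treatment. Test chemicals, formulated in a non-phytotoxic solvent mixture with surfactant, were applied either as a preemergence directed soil spray on seeded soil or postemergence to one- to two-leaf plants 2 to 10 cm tall.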

[6] = tested on: ryegrass, Italian (Italian ryegrass, Lolium multiflorum); experiment: Test A postemergence; conditions: postemergence; for Ryegrass, Italian plant response rating: 125 g ai/ha, visual injury rating on 0 to 100 scale (0 no effect, 100 complete control), approx. 10 d; for Plant response rating, Ryegrass, Italian: 500 g ai/ha, 0 to 100 scale, 0 no effect, 100 complete control
How it was run: as §2

[7] = tested on: corn (Zea mays); experiment: Test A postemergence; conditions: postemergence; for Corn plant response rating: 125 g ai/ha, visual injury rating on 0 to 100 scale (0 no effect, 100 complete control), approx. 10 d; for Plant response rating, Corn: 500 g ai/ha, 0 to 100 scale, 0 no effect, 100 complete control
How it was run: as §2

[8] = tested on: Galium (catchweed bedstraw, Galium aparine); experiment: Test A postemergence; conditions: postemergence; for Galium plant response rating: 125 g ai/ha, visual injury rating on 0 to 100 scale (0 no effect, 100 complete control), approx. 10 d; for Plant response rating, Galium: 500 g ai/ha, 0 to 100 scale, 0 no effect, 100 complete control
How it was run: as §2

[9] = tested on: Kochia (Kochia scoparia); experiment: Test A postemergence; conditions: postemergence; for Kochia plant response rating: 125 g ai/ha, visual injury rating on 0 to 100 scale (0 no effect, 100 complete control), approx. 10 d; for Plant response rating, Kochia: 500 g ai/ha, 0 to 100 scale, 0 no effect, 100 complete control
How it was run: as §2

[10] = tested on: blackgrass (Alopecurus myosuroides); experiment: Test A postemergence; conditions: postemergence; for Blackgrass plant response rating: 125 g ai/ha, visual injury rating on 0 to 100 scale (0 no effect, 100 complete control), approx. 10 d; for Plant response rating, Blackgrass: 500 g ai/ha, 0 to 100 scale, 0 no effect, 100 complete control
How it was run: as §2

[11] = tested on: ragweed (common ragweed, Ambrosia elatior); experiment: Test A postemergence; conditions: postemergence; for Ragweed plant response rating: 125 g ai/ha, visual injury rating on 0 to 100 scale (0 no effect, 100 complete control), approx. 10 d; for Plant response rating, Ragweed: 500 g ai/ha, 0 to 100 scale, 0 no effect, 100 complete control
How it was run: as §2

[12] = tested on: barnyardgrass (Echinochloa crus-galli); experiment: Test A postemergence; conditions: postemergence; for Barnyardgrass plant response rating: 125 g ai/ha, visual injury rating on 0 to 100 scale (0 no effect, 100 complete control), approx. 10 d; for Plant response rating, Barnyardgrass: 500 g ai/ha, 0 to 100 scale, 0 no effect, 100 complete control
How it was run: as §2

[13] = tested on: pigweed (Amaranthus retroflexus); experiment: Test A postemergence; conditions: postemergence; for Pigweed plant response rating: 125 g ai/ha, visual injury rating on 0 to 100 scale (0 no effect, 100 complete control), approx. 10 d; for Plant response rating, Pigweed: 500 g ai/ha, 0 to 100 scale, 0 no effect, 100 complete control
How it was run: as §2

[14] = tested on: wheat (Triticum aestivum); experiment: Test A postemergence; conditions: postemergence; for Wheat plant response rating: 125 g ai/ha, visual injury rating on 0 to 100 scale (0 no effect, 100 complete control), approx. 10 d; for Plant response rating, Wheat: 500 g ai/ha, 0 to 100 scale, 0 no effect, 100 complete control
How it was run: as §2

[15] = tested on: giant foxtail (Setaria faberii); experiment: Test A preemergence; conditions: for Plant response rating, Foxtail, Giant: 125 g ai/ha, preemergence, 0 to 100 scale (0 no effect, 100 complete control); for Foxtail, Giant plant response rating (0 to 100 scale, 0 is no effect, 100 is complete control): Preemergence, 500 g ai/ha, visual injury approx. 10 d
How it was run: as §2

[16] = tested on: ryegrass, Italian (Italian ryegrass, Lolium multiflorum); experiment: Test A preemergence; conditions: for Plant response rating, Ryegrass, Italian: 125 g ai/ha, preemergence, 0 to 100 scale (0 no effect, 100 complete control); for Ryegrass, Italian plant response rating (0 to 100 scale, 0 is no effect, 100 is complete control): Preemergence, 500 g ai/ha, visual injury approx. 10 d
How it was run: as §2

[17] = tested on: Kochia (Kochia scoparia); experiment: Test A preemergence; conditions: for Plant response rating, Kochia: 125 g ai/ha, preemergence, 0 to 100 scale (0 no effect, 100 complete control); for Kochia plant response rating (0 to 100 scale, 0 is no effect, 100 is complete control): Preemergence, 500 g ai/ha, visual injury approx. 10 d
How it was run: as §2

[18] = tested on: ragweed (common ragweed, Ambrosia elatior); experiment: Test A preemergence; conditions: for Plant response rating, Ragweed: 125 g ai/ha, preemergence, 0 to 100 scale (0 no effect, 100 complete control); for Ragweed plant response rating (0 to 100 scale, 0 is no effect, 100 is complete control): Preemergence, 500 g ai/ha, visual injury approx. 10 d
How it was run: as §2

[19] = tested on: barnyardgrass (Echinochloa crus-galli); experiment: Test A preemergence; conditions: for Plant response rating, Barnyardgrass: 125 g ai/ha, preemergence, 0 to 100 scale (0 no effect, 100 complete control); for Barnyardgrass plant response rating (0 to 100 scale, 0 is no effect, 100 is complete control): Preemergence, 500 g ai/ha, visual injury approx. 10 d
How it was run: as §2

[20] = tested on: pigweed (Amaranthus retroflexus); experiment: Test A preemergence; conditions: for Plant response rating, Pigweed: 125 g ai/ha, preemergence, 0 to 100 scale (0 no effect, 100 complete control); for Pigweed plant response rating (0 to 100 scale, 0 is no effect, 100 is complete control): Preemergence, 500 g ai/ha, visual injury approx. 10 d

| Structure (SMILES) | Plant response rating, Sedge, Umbrella [1] | Plant response rating, Rice [2] | Plant response rating, Ducksalad [3] | Plant response rating, Barnyardgrass [4] | Foxtail, Giant plant response rating [5] | Plant response rating, Foxtail, Giant [5] | Ryegrass, Italian plant response rating [6] | Plant response rating, Ryegrass, Italian [6] | Corn plant response rating [7] | Plant response rating, Corn [7] | Galium plant response rating [8] | Plant response rating, Galium [8] | Kochia plant response rating [9] | Plant response rating, Kochia [9] | Blackgrass plant response rating [10] | Plant response rating, Blackgrass [10] | Ragweed plant response rating [11] | Plant response rating, Ragweed [11] | Barnyardgrass plant response rating [12] | Plant response rating, Barnyardgrass [12] | other results |
| --- | --- | --- | --- | --- | --- | --- | --- | --- | --- | --- | --- | --- | --- | --- | --- | --- | --- | --- | --- | --- | --- |
| CN1CC(c2ccc(F)cc2)C(C(=O)Nc2ccccc2F)C1=O (stereo not drawn) [Compound 437] | 0 | 0 | 100 | 65 | 90 | 90 | 0 | 20 | 0 | 20 | 30 | 50 | 20 | 30 | 0 | 30 | 0 | 0 | 90 | 90 | Pigweed plant response rating [13]: 0; Plant response rating, Pigweed [13]: 20; Wheat plant response rating [14]: 0; Plant response rating, Wheat [14]: 40; Plant response rating, Foxtail, Giant [15]: 90; Foxtail, Giant plant response rating (0 to 100 scale, 0 is no effect, 100 is complete control) [15]: 100; Plant response rating, Ryegrass, Italian [16]: 0; Ryegrass, Italian plant response rating (0 to 100 scale, 0 is no effect, 100 is complete control) [16]: 50; Plant response rating, Kochia [17]: 60; Kochia plant response rating (0 to 100 scale, 0 is no effect, 100 is complete control) [17]: 70; Plant response rating, Ragweed [18]: 0; Ragweed plant response rating (0 to 100 scale, 0 is no effect, 100 is complete control) [18]: 60; Plant response rating, Barnyardgrass [19]: 90; Barnyardgrass plant response rating (0 to 100 scale, 0 is no effect, 100 is complete control) [19]: 90; Plant response rating, Pigweed [20]: 20; Pigweed plant response rating (0 to 100 scale, 0 is no effect, 100 is complete control) [20]: 80 |
| CN1CC(c2ccc(F)cc2)C(C(=O)Nc2ccccc2S(C)(=O)=O)C1=O (stereo not drawn) [Compound 439] | 0 | 0 | 100 | 40 | 90 | 90 | 0 | 30 | 0 | 20 | 40 | 50 | 30 | 70 | 0 | 60 | 0 | 20 | 90 | 90 | Pigweed plant response rating [13]: 40; Plant response rating, Pigweed [13]: 50; Wheat plant response rating [14]: 0; Plant response rating, Wheat [14]: 40; Plant response rating, Foxtail, Giant [15]: 90; Foxtail, Giant plant response rating (0 to 100 scale, 0 is no effect, 100 is complete control) [15]: 100; Plant response rating, Ryegrass, Italian [16]: 0; Ryegrass, Italian plant response rating (0 to 100 scale, 0 is no effect, 100 is complete control) [16]: 50; Plant response rating, Kochia [17]: 70; Kochia plant response rating (0 to 100 scale, 0 is no effect, 100 is complete control) [17]: 70; Plant response rating, Ragweed [18]: 0; Ragweed plant response rating (0 to 100 scale, 0 is no effect, 100 is complete control) [18]: 60; Plant response rating, Barnyardgrass [19]: 90; Barnyardgrass plant response rating (0 to 100 scale, 0 is no effect, 100 is complete control) [19]: 90; Plant response rating, Pigweed [20]: 50; Pigweed plant response rating (0 to 100 scale, 0 is no effect, 100 is complete control) [20]: 80 |
